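Tested at 5 concentrations; 48 h exposure; 96-well plates; endpoints linearly interpolated, else capped at highest concentration. At the GI50, growth is halved. TGI denotes the concentration required for complete inhibition of growth.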
Legend:
Experiment in all cases: inhibition of tumour cell growth, NCI panel, 48 h
[1] = test system: SW-620 colon
[2] = test system: SK-MEL-28 melanoma
[3] = test system: NCI-H522 lung
[4] = test system: OVCAR-4 ovarian
[5] = test system: SF-539 CNS
[6] = test system: NCI-H23 lung
[7] = test system: HCT-116 colon
[8] = test system: EKVX NSCLC
[9] = test system: NCI/ADR-RES ovarian
[10] = test system: COLO 205 colon
[11] = test system: TK-10 renal
[12] = test system: HCC-2998 colon
[13] = test system: OVCAR-5 ovarian
[14] = test system: SF-295 CNS
[15] = test system: UO-31 renal
[16] = test system: MDA-MB-231 breast
[17] = test system: LOX IMVI melanoma
[18] = test system: HOP-62 NSCLC
[19] = test system: HOP-92 NSCLC
[20] = test system: RXF 393 renal
[21] = test system: HCT-15 colon
[22] = test system: MCF7 breast
[23] = test system: SK-MEL-2 melanoma
[24] = test system: MALME-3M melanoma
[25] = test system: SN12C renal
[26] = test system: BT-549 breast
[27] = test system: NCI-H226 lung
[28] = test system: 786-0 renal
[29] = test system: UACC-62 melanoma
[30] = test system: SF-268 CNS
[31] = test system: MDA-MB-435
[32] = test system: SNB-75 CNS
[33] = test system: KM12 colon
[34] = test system: T-47D breast
[35] = test system: CCRF-CEM leukemia
[36] = test system: HT29 colon
[37] = test system: HS 578T breast
[38] = test system: SNB-19 CNS
[39] = test system: NCI-H460 lung
[40] = test system: ACHN renal
[41] = test system: A498 renal
[42] = test system: U251 CNS
[43] = test system: CAKI-1 renal
[44] = test system: M14 melanoma
[45] = test system: OVCAR-3 ovarian
[46] = test system: RPMI-8226 leukemia
[47] = test system: SK-MEL-5 melanoma
[48] = test system: SK-OV-3 ovarian
[49] = test system: DU-145 prostate
[50] = test system: OVCAR-8 ovarian
[51] = test system: MOLT-4 leukemia
[52] = test system: A549 NSCLC
[53] = test system: HL-60(TB) leukemia
[54] = test system: IGROV1 ovarian
[55] = test system: K-562 leukemia
[56] = test system: PC-3 prostate
[57] = test system: SR leukemia

With `CCCCCCCC/C(=C\C1=C(C)C(=O)C(OC)=C(OC)C1=O)C(=O)O` the GI50 [1] was 35 µM, the TGI [1] was over 100 µM and the GI50 [2] was 43.4 µM. For the same compound, the TGI [2] was over 100 µM, the GI50 [3] was 78.1 µM and the TGI [3] was over 100 µM. It also gave a GI50 [4] of 19.9 µM, a TGI [4] of 36.9 µM and a GI50 [5] of 23.2 µM. The TGI [5] was 75.5 µM, the GI50 [6] was 57.7 µM and the TGI [6] was over 100 µM. It also gave a GI50 [7] of 16.3 µM, a TGI [7] of 29.9 µM and a GI50 [8] of 15.8 µM. It also gave a TGI [8] of 31.6 µM, a GI50 [9] of 27.1 µM and a TGI [9] of 97.5 µM. For the same compound, the GI50 [10] was over 100 µM, the TGI [10] was over 100 µM and the GI50 [11] was over 100 µM. It also gave a TGI [11] of over 100 µM, a GI50 [12] of 66.2 µM and a TGI [12] of over 100 µM. For the same compound, the GI50 [13] was over 100 µM, the TGI [13] was over 100 µM and the GI50 [14] was 43 µM. For the same compound, the TGI [14] was over 100 µM, the GI50 [15] was 40.3 µM and the TGI [15] was over 100 µM. It also gave a GI50 [16] of 21.4 µM, a TGI [16] of 51.2 µM and a GI50 [17] of 19.9 µM. The TGI [17] was 45.5 µM, the GI50 [18] was 73.2 µM and the TGI [18] was over 100 µM. The GI50 [19] was 13 µM, the TGI [19] was 29.6 µM and the GI50 [20] was 23.7 µM. For the same compound, the TGI [20] was 44.1 µM, the GI50 [21] was 63.6 µM and the TGI [21] was over 100 µM. It also gave a GI50 [22] of 22.3 µM, a TGI [22] of 44.8 µM and a GI50 [23] of over 100 µM. The TGI [23] was over 100 µM, the GI50 [24] was 51.3 µM and the TGI [24] was over 100 µM. It also gave a GI50 [25] of 0.198 µM, a TGI [25] of 29.2 µM and a GI50 [26] of 24.2 µM. The TGI [26] was 54.6 µM, the GI50 [27] was 29.2 µM and the TGI [27] was over 100 µM. The GI50 [28] was 62.7 µM, the TGI [28] was over 100 µM and the GI50 [29] was 33.8 µM. For the same compound, the TGI [29] was over 100 µM, the GI50 [30] was 29.5 µM and the TGI [30] was 70.3 µM. For the same compound, the GI50 [31] was 18.8 µM, the TGI [31] was 37 µM and the GI50 [32] was 67.7 µM. For the same compound, the TGI [32] was over 100 µM, the GI50 [33] was 53.5 µM and the TGI [33] was over 100 µM. For the same compound, the GI50 [34] was 21.9 µM, the TGI [34] was 48.8 µM and the GI50 [35] was 20.2 µM. It also gave a TGI [35] of 42.5 µM, a GI50 [36] of 65.1 µM and a TGI [36] of over 100 µM. It also gave a GI50 [37] of 23.8 µM, a TGI [37] of 83.9 µM and a GI50 [38] of 75.9 µM. It also gave a TGI [38] of over 100 µM, a GI50 [39] of 86.7 µM and a TGI [39] of over 100 µM. For the same compound, the GI50 [40] was 29 µM, the TGI [40] was over 100 µM and the GI50 [41] was 78.8 µM. The TGI [41] was over 100 µM, the GI50 [42] was 19.9 µM and the TGI [42] was 41.8 µM. For the same compound, the GI50 [43] was 51.2 µM, the TGI [43] was over 100 µM and the GI50 [44] was over 100 µM. It also gave a TGI [44] of over 100 µM, a GI50 [45] of 34.1 µM and a TGI [45] of over 100 µM. The GI50 [46] was 20.5 µM, the TGI [46] was 49.9 µM and the GI50 [47] was 36.7 µM. It also gave a TGI [47] of over 100 µM, a GI50 [48] of over 100 µM and a TGI [48] of over 100 µM. It also gave a GI50 [49] of 25.4 µM and a TGI [49] of 94 µM.
In the case of `COc1ccc(C(O)c2cc3c(N)c(C(=O)Nc4ccccc4)sc3nc2C)cc1` (stereo not drawn), the GI50 [1] is reported as 0.0391 µM, the TGI [1] is reported as over 100 µM and the GI50 [50] is reported as 0.0636 µM. For the same compound, the TGI [50] was over 100 µM, the GI50 [3] was 0.0347 µM and the TGI [3] was 2.57 µM. It also gave a GI50 [51] of 0.0508 µM, a TGI [51] of over 100 µM and a GI50 [4] of 2.03 µM. For the same compound, the TGI [4] was over 100 µM, the GI50 [52] was 0.0628 µM and the TGI [52] was over 100 µM. It also gave a GI50 [5] of 0.0348 µM, a TGI [5] of 0.825 µM and a GI50 [6] of 0.0754 µM. For the same compound, the TGI [6] was over 50.1 µM, the GI50 [7] was 0.0425 µM and the TGI [7] was over 35.4 µM. For the same compound, the GI50 [8] was 0.0617 µM, the TGI [8] was over 100 µM and the GI50 [9] was 0.0381 µM. The TGI [9] was 2.02 µM, the GI50 [10] was 0.219 µM and the TGI [10] was 1.8 µM. It also gave a GI50 [11] of 4.51 µM, a TGI [11] of 49.8 µM and a GI50 [12] of 0.102 µM. The TGI [12] was 3.79 µM, the GI50 [13] was 0.0714 µM and the TGI [13] was 25.4 µM. The GI50 [14] was 0.0352 µM, the TGI [14] was 12.6 µM and the GI50 [15] was 0.0706 µM. It also gave a TGI [15] of 49.8 µM, a GI50 [16] of 0.0728 µM and a TGI [16] of 9.63 µM. For the same compound, the GI50 [17] was 0.0539 µM, the TGI [17] was over 100 µM and the GI50 [18] was 0.0774 µM. It also gave a TGI [18] of 68.6 µM, a GI50 [19] of 0.0546 µM and a TGI [19] of 12.1 µM. It also gave a GI50 [20] of 0.0286 µM, a TGI [20] of 0.911 µM and a GI50 [21] of 0.0403 µM. It also gave a TGI [21] of over 100 µM, a GI50 [22] of 0.0345 µM and a TGI [22] of 19.3 µM. The GI50 [23] was 0.238 µM, the TGI [23] was over 100 µM and the GI50 [24] was 0.051 µM. It also gave a TGI [24] of 35.1 µM, a GI50 [25] of 0.0628 µM and a TGI [25] of 29.5 µM. It also gave a GI50 [26] of 0.186 µM, a TGI [26] of 36.4 µM and a GI50 [27] of 0.0579 µM. The TGI [27] was 1.87 µM, the GI50 [53] was 0.0324 µM and the TGI [53] was 0.459 µM. For the same compound, the GI50 [54] was 0.094 µM, the TGI [54] was 22.6 µM and the GI50 [28] was 0.0763 µM. For the same compound, the TGI [28] was 25.3 µM, the GI50 [29] was 0.0397 µM and the TGI [29] was 19.4 µM. For the same compound, the GI50 [30] was 0.174 µM, the TGI [30] was over 70 µM and the GI50 [55] was 0.0382 µM. For the same compound, the TGI [55] was over 100 µM, the GI50 [32] was 0.0267 µM and the TGI [32] was 21.9 µM. For the same compound, the GI50 [33] was 0.0403 µM, the TGI [33] was over 100 µM and the GI50 [34] was 0.0514 µM. The TGI [34] was over 100 µM, the GI50 [35] was 0.0383 µM and the TGI [35] was over 100 µM. The GI50 [56] was 0.14 µM, the TGI [56] was over 74.3 µM and the GI50 [36] was 0.0333 µM. For the same compound, the TGI [36] was 8.6 µM, the GI50 [37] was 0.0305 µM and the TGI [37] was 3.01 µM. The GI50 [38] was 0.0443 µM, the TGI [38] was 20.4 µM and the GI50 [57] was 0.0333 µM. It also gave a TGI [57] of over 100 µM, a GI50 [39] of 0.0361 µM and a TGI [39] of 11.1 µM. The GI50 [40] was 0.0683 µM, the TGI [40] was 27.5 µM and the GI50 [41] was 0.0262 µM. For the same compound, the TGI [41] was 2.79 µM, the GI50 [42] was 0.0425 µM and the TGI [42] was 29.7 µM. For the same compound, the GI50 [43] was 0.0416 µM, the TGI [43] was 20.7 µM and the GI50 [44] was 0.0349 µM. The TGI [44] was over 100 µM, the GI50 [45] was 0.0321 µM and the TGI [45] was 1.27 µM. For the same compound, the GI50 [46] was 0.0416 µM, the TGI [46] was over 100 µM and the GI50 [47] was 0.0359 µM. It also gave a TGI [47] of 0.591 µM, a GI50 [48] of 0.0539 µM and a TGI [48] of 25.4 µM. It also gave a GI50 [49] of 0.0414 µM and a TGI [49] of 50.6 µM.
